{"source": "patent US10736822B2", "about": "“Root canal treatment material and root canal treatment kit” (FUJIFILM Corporation, priority 2016, dated 2020)", "test": "Evaluation of curability under moist environment (distilled water added, Vicat needle)", "assay_type": "physicochemical", "conditions": "conclusion in words from Table 1", "description": "The curability of each of the root canal treatment materials according to the examples and the comparative examples was evaluated through the following method. First, a cylindrical mold having an inner diameter of 5 mm and a height of 1 mm was filled with each of the root canal treatment materials which was then subjected to light irradiation with a light irradiator (“G-Light Prima II Plus” manufactured by GC) for 40 seconds to produce a test piece. […] A needle mark was visually checked and evaluated according to the following criteria.\nThe curability of each of the root canal treatment materials according to the examples and the comparative examples was evaluated in a moist environment through the following method. First, 15 μL of distilled water was added to 0.15 g of each of the root canal treatment materials which was then subjected to light irradiation with the light irradiator (“G-Light Prima II Plus” manufactured by GC) for 20 seconds to produce a test piece. The curability of each of the obtained test pieces was evaluated in the same manner as in <Evaluation of Curability> described above."}
{"smiles": "C=CC(=O)NCCCOCC(COCCCNC(=O)C=C)(COCCCNC(=O)C=C)NC(=O)C=C", "note": "[compound (I)]", "values": [{"measurement": "curability in a moist environment", "value": "particularly excellent curability in a moist environment"}]}
